{"source": "paper PMC8163982", "about": "“Partial agonism improves the anti-hyperglycaemic efficacy of an oxyntomodulin-derived GLP-1R/GCGR co-agonist” (Molecular Metabolism, 2021)", "key": {"[1]": {"target": "GLP-1R (Homo sapiens, UniProt P43220)", "sequence (P43220 24-463)": "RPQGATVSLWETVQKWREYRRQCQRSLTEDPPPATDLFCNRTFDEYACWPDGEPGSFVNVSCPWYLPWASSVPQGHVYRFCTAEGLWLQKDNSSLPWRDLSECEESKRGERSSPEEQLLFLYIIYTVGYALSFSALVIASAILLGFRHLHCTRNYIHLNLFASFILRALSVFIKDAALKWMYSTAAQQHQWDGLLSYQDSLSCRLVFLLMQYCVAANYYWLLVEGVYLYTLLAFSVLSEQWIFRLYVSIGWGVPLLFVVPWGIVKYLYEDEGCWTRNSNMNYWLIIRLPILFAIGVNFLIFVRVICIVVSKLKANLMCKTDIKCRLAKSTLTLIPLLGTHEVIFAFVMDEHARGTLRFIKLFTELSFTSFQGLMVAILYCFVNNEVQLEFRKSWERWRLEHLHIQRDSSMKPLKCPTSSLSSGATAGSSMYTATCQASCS", "experiment": "NanoBiT β-arrestin-2 recruitment to GLP-1R-SmBiT in HEK293T cells", "format": "cell-based", "conditions": "SRB103 pair, mean ± SEM, n = 6; for Emax: HEK-293T, normalised to full agonist response, read-out: GLP-1R βarr2 (HEK293T) Emax; for EC50: 3-parameter fit, read-out: GLP-1R βarr2 (HEK293T) pEC50 (converted)", "procedure": "The assay was performed as previously described. […] (gifts from Professor Nevin Lambert, Medical College of Georgia) or 0.05 μg of GLP-1R-SmBiT and 0.05 μg of LgBiT-β-arrestin-2 (Promega) plus 0.9 μg of pcDNA3.1 for 24 h. The cells were detached with EDTA, resuspended in HBSS, and furimazine (Promega) was added at a 1:50 dilution from the manufacturer's pre-prepared stock. After dispensing into 96-well white plates, a baseline read of the luminescent signals was serially recorded for 5 min using a FlexStation 3 instrument at 37 °C before the indicated concentration of ligand was added, after which the signals were repeatedly recorded for 30 min. […] Bias was calculated using two approaches. First, the log max/EC50 method was used, with the ratio of Emax to EC50 from 3-parameter fits for each ligand used to quantify agonism. After log10 transformation, responses were expressed relative to the reference agonist on a per assay basis to obtain Δlog(Emax/EC50) for each pathway. Pathway-specific values were then expressed relative to each other to obtain ΔΔlog(Emax/EC50), that is, the log bias factor. Second, a method derived from kinetic curve fitting was used. Here, kinetic responses for a single maximal agonist concentration were normalised at each time point to the vehicle response prior to curve fitting. Mini-Gs responses were fitted using the one-phase exponential association equation in Prism 8.0. β-arrestin-2 responses were fitted using the biexponential equation described in [29]. […] Pathway-specific values were then expressed relative to each other to obtain ΔΔlog kτ , that is, the log bias factor."}, "[2]": {"target": "T1, SNAP-GLP-1R (Homo sapiens, UniProt P43220)", "T1 construct": "expressed in transfected cells", "T1 sequence (P43220 24-463)": "as above", "experiment": "High content imaging assay for SNAP-GLP-1R internalisation", "format": "cell-based", "conditions": "high content analysis, mean ± SEM, n = 4, read-out: HCA assay (HEK293-SNAP-GLP-1R) pEC50 (converted)", "procedure": "The assay was adapted from a previously described method. HEK293T cells were seeded in black clear-bottom plates coated with 0.1% poly-D-lysine and assayed 24 h after transfection with SNAP-tagged GLP-1R or GCGR plasmid DNA (0.1 μg per well). The cells were labelled with the cleavable SNAP-tag probe BG-S-S-549 (a gift from New England Biolabs) in complete medium for 30 min at room temperature. After washing, fresh serum-free medium ± agonist was added. At the end of incubation, the medium was removed and the wells were treated with for 5 min at 4 °C with Mesna (100 mM in alkaline TNE buffer at a pH of 8.6) to remove BG-S-S-549 bound to residual surface receptors without affecting the internalised receptor population or with alkaline TNE buffer alone. After washing, phase contrast and epifluorescence cellular imaging at 20× magnification was performed, followed by processing as previously described to quantify the amount of internalised receptor from the fluorescence intensity readings."}, "[3]": {"experiment": "Pharmacokinetic study in rats (SC with ZnCl2, plasma radioimmunoassay)", "format": "in vivo, rat", "conditions": "4 mg/kg SC with zinc, up to 72 h", "procedure": "The mice were administered 0.5 mg/kg of peptide via IP injection. Four h after injection, blood was acquired by venesection into lithium heparin-coated microvette tubes (Sarstedt, Germany). In a separate study, male Sprague Dawley rats (average weight 250 g, obtained from Charles River) were administered 4 mg/kg of peptide SC mixed in aqueous ZnCl2 solution to a molar ratio of 0.7:1 (peptide:ZnCl2), and blood was collected by venesection at several time points up to 72 h. Plasma was separated by centrifugation at 10,000 g for 8 min at 4 °C. Plasma concentrations were assessed by radioimmunoassay using an in-house assay as previously described using standard curves generated from each SRB103 peptide to ensure that equivalent recovery was obtained."}, "[4]": {"target": "T2, GCGR (Homo sapiens, UniProt P47871)", "T2 sequence (P47871 26-477)": "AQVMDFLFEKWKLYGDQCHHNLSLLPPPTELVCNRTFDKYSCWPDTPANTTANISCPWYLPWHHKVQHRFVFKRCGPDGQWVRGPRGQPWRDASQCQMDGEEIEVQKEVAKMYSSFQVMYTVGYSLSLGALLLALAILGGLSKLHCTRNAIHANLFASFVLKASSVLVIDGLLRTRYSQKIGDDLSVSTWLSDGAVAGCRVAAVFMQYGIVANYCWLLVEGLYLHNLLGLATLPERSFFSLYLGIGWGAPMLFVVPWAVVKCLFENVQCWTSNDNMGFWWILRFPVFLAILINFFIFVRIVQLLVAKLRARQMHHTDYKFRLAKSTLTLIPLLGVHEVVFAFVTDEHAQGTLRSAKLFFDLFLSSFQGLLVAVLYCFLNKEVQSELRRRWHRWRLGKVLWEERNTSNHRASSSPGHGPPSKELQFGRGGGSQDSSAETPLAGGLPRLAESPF", "experiment": "cAMP accumulation in Huh7-GCGR cells", "format": "cell-based", "design": "expressed in transfected cells; host or cells: Huh7", "conditions": "mean ± SEM, n = 6; for Emax: expressed relative to 10 μM forskolin response", "procedure": "HEK293T cells were maintained in DMEM supplemented with 10% FBS and 1% penicillin/streptomycin. PathHunter CHO–K1-βarr2-EA cells stably expressing human GLP-1R, GCGR, or GIPR and PathHunter CHO–K1-βarr1-EA cells stably expressing GCGR were obtained from DiscoverX and maintained in Ham's F12 medium with 10% FBS and 1% penicillin/streptomycin. Stable HEK293-SNAP-GLP-1R cells were maintained in DMEM supplemented with 10% FBS, 1% penicillin/streptomycin, and 1 mg/ml of G418. INS-1 832/3 cells, a gift from Professor Chris Newgard (Duke University), were maintained in RPMI with 11 mM of glucose supplemented with 10% FBS, 10 mM of HEPES, 1 mM of pyruvate, 50 μM of β-mercaptoethanol, and 1% penicillin/streptomycin. Huh7 cells stably expressing human GCGR (Huh7-GCGR) were maintained in DMEM supplemented with 10% FBS, 1 mg/ml of G418, and 1% penicillin/streptomycin.\nPathHunter cells were stimulated with the indicated concentration of agonist for 30 min at 37 °C in serum-free medium without phosphodiesterase inhibitors. INS-1 832/3 cells were stimulated with the indicated concentration of agonist for 10 min at 37 °C in serum-free medium with 100 μM of 3-isobutyl-1-methylxanthine (IBMX). Primary dispersed mouse islet cells prepared by triturating intact islets in 0.05% trypsin/EDTA for 3 min at 37 °C were stimulated with the indicated concentration of agonist for 5 min at 37 °C in serum-free medium with 11 mM of glucose and 500 μM of IBMX. Primary mouse hepatocytes were stimulated in serum-free medium with 100 μM of IBMX for 10 min or 16 h in serum-free medium with 100 μM of IBMX added for the final 10 min of incubation. Huh7-GCGR cells were stimulated in serum-free medium without phosphodiesterase inhibitors for 10 min or for 16 h in serum-free medium. Where relevant, forskolin (10 μM) was added as a positive or normalisation control. At the end of each incubation, cAMP was then assayed by HTRF (Cisbio cAMP Dynamic 2) and concentration-response curves were constructed with 3-parameter curve fitting using Prism 8.0."}, "[5]": {"target": "T2, GCGR", "experiment": "NanoBiT β-arrestin-2 recruitment to GCGR-SmBiT in HEK293T cells", "format": "cell-based", "design": "expressed in transfected cells; host or cells: HEK293T", "conditions": "SRB103 pair, mean ± SEM, n = 6; for Emax: HEK-293T, normalised to full agonist response, read-out: GCGR βarr2 (HEK293T) Emax; for EC50: 3-parameter fit, read-out: GCGR βarr2 (HEK293T) pEC50 (converted)"}, "[6]": {"conditions": "16 h, read-out: Huh7-GCGR cAMP,16 h Emax"}, "[7]": {"conditions": "16 h, read-out: Huh7-GCGR cAMP,16 h pEC50 (converted)"}, "[8]": {"conditions": "Huh7-GCGR cAMP, 10 min pEC50, 10 min, no phosphodiesterase inhibitors"}, "[9]": {"conditions": "read-out: Huh7-GCGR cAMP, 10 min Emax, 10 min"}}, "note": "Where a SMILES comes first, the peptide text is derived from it. [ ]: non-standard residue; d: D form. Aib = CC(C)(N)C(=O)O"}
{"smiles": "CC[C@H](C)[C@H](NC(=O)[C@H](Cc1ccccc1)NC(=O)[C@H](CCC(=O)O)NC(=O)[C@H](CCC(N)=O)NC(=O)[C@H](C)NC(=O)[C@H](CCCNC(=N)N)NC(=O)[C@H](CCCCN)NC(=O)[C@H](C)NC(=O)[C@H](CC(=O)O)NC(=O)[C@H](CC(C)C)NC(=O)[C@H](Cc1ccc(O)cc1)NC(=O)[C@H](CCCCN)NC(=O)[C@H](CO)NC(=O)[C@H](Cc1ccc(O)cc1)NC(=O)[C@H](CC(=O)O)NC(=O)[C@H](CO)NC(=O)[C@@H](NC(=O)[C@H](Cc1ccccc1)NC(=O)[C@@H](NC(=O)CNC(=O)[C@H](CCC(N)=O)NC(=O)C(C)(C)NC(=O)[C@@H](N)Cc1c[nH]cn1)[C@@H](C)O)[C@@H](C)O)C(=O)N[C@@H](CCC(=O)O)C(=O)N[C@@H](Cc1c[nH]c2ccccc12)C(=O)N[C@@H](CC(C)C)C(=O)N[C@@H](CC(C)C)C(=O)N[C@@H](C)C(=O)NCC(=O)N[C@@H](Cc1c[nH]cn1)C(=O)N[C@@H](Cc1c[nH]cn1)C(=O)N[C@@H](Cc1c[nH]cn1)C(=O)N[C@@H](Cc1c[nH]cn1)C(=O)N[C@@H](Cc1c[nH]cn1)C(=O)N1CCC[C@H]1C(=O)N[C@@H](CO)C(=O)N[C@@H](Cc1c[nH]c2ccccc12)C(=O)O", "note": "[SRB103Q] (H-H[Aib]QGTFTSDYSKYLDAKRAQEFIEWLLAGHHHHHPSW-OH)", "values": [{"measurement": "Emax", "setting": "[1]", "value": "60 ± 2", "unit": "%"}, {"measurement": "EC50", "setting": "[1]", "value": 200, "unit": "nM"}, {"measurement": "EC50", "setting": "[2]", "value": 2.51, "unit": "nM"}, {"measurement": "Pharmacokinetics by serial plasma sampling", "setting": "[3]", "value": "no obvious difference in pharmacokinetics"}, {"measurement": "Emax", "setting": "[4]; [6]", "value": "284 ± 38", "unit": "%"}, {"measurement": "EC50", "setting": "[4]; [7]", "value": 0.2, "unit": "nM"}, {"measurement": "EC50", "setting": "[4]; [8]", "value": 0.0158, "unit": "nM"}, {"measurement": "Emax", "setting": "[4]; [9]", "value": "27 ± 4", "unit": "%"}, {"measurement": "Emax", "setting": "[5]", "value": "77 ± 2", "unit": "%"}, {"measurement": "EC50", "setting": "[5]", "value": 50.1, "unit": "nM"}]}
{"smiles": "CC[C@H](C)[C@H](NC(=O)[C@H](Cc1ccccc1)NC(=O)[C@H](CCC(=O)O)NC(=O)[C@H](CCC(N)=O)NC(=O)[C@H](C)NC(=O)[C@H](CCCNC(=N)N)NC(=O)[C@H](CCCCN)NC(=O)[C@H](C)NC(=O)[C@H](CC(=O)O)NC(=O)[C@H](CC(C)C)NC(=O)[C@H](Cc1ccc(O)cc1)NC(=O)[C@H](CCCCN)NC(=O)[C@H](CO)NC(=O)[C@H](Cc1ccc(O)cc1)NC(=O)[C@H](CC(=O)O)NC(=O)[C@H](CO)NC(=O)[C@@H](NC(=O)[C@H](Cc1ccccc1)NC(=O)[C@@H](NC(=O)CNC(=O)[C@H](Cc1c[nH]cn1)NC(=O)C(C)(C)NC(=O)[C@@H](N)Cc1c[nH]cn1)[C@@H](C)O)[C@@H](C)O)C(=O)N[C@@H](CCC(=O)O)C(=O)N[C@@H](Cc1c[nH]c2ccccc12)C(=O)N[C@@H](CC(C)C)C(=O)N[C@@H](CC(C)C)C(=O)N[C@@H](C)C(=O)NCC(=O)N[C@@H](Cc1c[nH]cn1)C(=O)N[C@@H](Cc1c[nH]cn1)C(=O)N[C@@H](Cc1c[nH]cn1)C(=O)N[C@@H](Cc1c[nH]cn1)C(=O)N[C@@H](Cc1c[nH]cn1)C(=O)N1CCC[C@H]1C(=O)N[C@@H](CO)C(=O)N[C@@H](Cc1c[nH]c2ccccc12)C(=O)O", "note": "[SRB103H] (H-H[Aib]HGTFTSDYSKYLDAKRAQEFIEWLLAGHHHHHPSW-OH)", "values": [{"measurement": "Emax", "setting": "[1]", "value": 100, "unit": "%"}, {"measurement": "EC50", "setting": "[1]", "value": 398, "unit": "nM"}, {"measurement": "EC50", "setting": "[2]", "value": 7.94, "unit": "nM"}, {"measurement": "Pharmacokinetics by serial plasma sampling", "setting": "[3]", "value": "no obvious difference in pharmacokinetics"}, {"measurement": "Emax", "setting": "[4]; [6]", "value": "173 ± 11", "unit": "%"}, {"measurement": "EC50", "setting": "[4]; [7]", "value": 0.251, "unit": "nM"}, {"measurement": "EC50", "setting": "[4]; [8]", "value": 0.0316, "unit": "nM"}, {"measurement": "Emax", "setting": "[4]; [9]", "value": "27 ± 4", "unit": "%"}, {"measurement": "Emax", "setting": "[5]", "value": 100, "unit": "%"}, {"measurement": "EC50", "setting": "[5]", "value": 31.6, "unit": "nM"}]}
